Reference: patent publication US20260224577A1, “METHODS OF TREATING HEART FAILURE WITH VIBEGRON” (SUMITOMO PHARMA CO., LTD., priority 2021, published 2026)

Tested on: mice with induced myocardial infarction
Test: Post-MI chronic heart failure in mice, echocardiography
Format: in vivo
Source text: The purpose of this experiment is to study the effect of vibegron on structural remodeling (e.g., hypertrophy and/or fibrosis) and functional remodeling (e.g, ventricular function) in mice with chronic HF after a myocardial infarction (MI). The specific aims of these studies will be to determine the dose response treatment effects on cardiac remodeling by measuring parameters of cardiac structure and function using non-invasive, invasive, morphological, and histological assessments of mice after MI.
Myocardial infarction in the mouse is a commonly used experimental model for chronic ischemic heart failure. Due to complete ligation of the left anterior descending coronary artery, there is a large left ventricular infarct that produces adverse LV remodeling and significant dysfunction within 2 weeks post-MI. There also is significant fibrosis in this model and it is robust and reproducible with low mortality due to the surgical procedure. This model has been used for over 2 decades (see, e.g., Gao, E. et al., Circulation Research, 2010; 107: 1445-1453) and has been used to test potential novel HF therapeutics (Schumacher, S. et al. Science Translational Medicine, 2015; 7: 277).
Myocardial infarction was induced in 10-12 week C57B/6 wild-type mice and after 2 weeks echo cardiograms were used to assess the MI severity in each mouse. Mice were randomized for treatment based on similarity and severity of the induced infarct. The mice were started with either vibegron or vehicle (1-3 doses) administered by continuous infusion using 2 week minipumps (Azlet Corp.) that were filled with the appropriate dose and implanted subcutaneously on the back of each animal in the region of the scapula. The minipumps were replaced with new minipumps in the same location at the 2 week time point and dosed for 4 weeks in total. Cardiac function was assessed by echocardiography (Echo) at 0, 2, 4, and 6 weeks. Some mice were subjected to terminal catheterization to measure hemodynamic pressures and adrenergic responsiveness.
Sham surgery groups treated with vehicle and highest dose of vibegron were included as controls. One group of post-MI mice treated with vehicle was also included in the study as a control. Two groupings of the 6 conditions were tested to allow for multiple replicates. There were 7 to 8 mice per condition in each group. The 2 groups studied were staggered by 3-4 weeks.
At this point, 6 experimental conditions (A-F below)×2 groups (staggered for reproducibility) were tested. Vibegron was provided in a form dissolved and delivered via an osmotic minipump placed under the skin of the mouse. The vehicle was used for negative control animals. Three (3) doses of vibegron (low, medium and high) were tested.
• A. Sham—vehicle • B. Sham—vibegron (high dose) • C. MI—vehicle • D. MI—vibegron—low dose • E. MI—vibegron—medium dose • F. MI—vibegron—high dose Group 2 (7 or 8 Mice Per Group) Repeated 3-4 Weeks after Group 1 • A. Sham—vehicle • B. Sham—vibegron (high dose) • C. MI—vehicle • D. MI—vibegron—low dose • E. MI—vibegron—medium dose • F. MI—vibegron—high dose
• 1. Day 0 (after 1-2 weeks acclimation)—pre-surgery Echo • 2. Perform LAD Ligation (MI) or Sham procedure • 3. Day 14—Echo and randomly assign groups • 4. Day 14—begin administration of vehicle and drug for 4 weeks • 5. Day 28—Echo (operator blinded to groups)—change pumps for another 2 week dosing • 6. Day 42—Echo (operator blinded to groups) • 7. Day 42—Some were used for hemodynamics and ISO dose response and all animals sacrificed. Some were used for histology and some for RNA/Protein analysis. Blood was also collected at the time of sacrifice to determine serum concentrations.
Surgical Methods: As described in Gao, E. et al., Circulation Research, 2010; 107: 1445-1453 and Schumacher, S. et al. Science Translational Medicine, 2015; 7: 277, mice were anesthetized and complete ligation of the LAD was performed through a partial thoracotomy.

[1] = MI mice, high dose (10 mg/kg), Baseline (pre-surgery)
[2] = MI mice, high dose (10 mg/kg), Week 2 (before start of dosing)
[3] = MI mice, high dose (10 mg/kg), Week 4 (2 weeks after dosing)
[4] = MI mice, high dose (10 mg/kg), Week 6 (4 weeks of treatment)
[5] = MI mice, low dose (1 mg/kg), Baseline (pre-surgery)
[6] = MI mice, low dose (1 mg/kg), Week 2 (before start of dosing)
[7] = MI mice, low dose (1 mg/kg), Week 4 (2 weeks after dosing)
[8] = MI mice, low dose (1 mg/kg), Week 6 (4 weeks of treatment)
[9] = MI mice, medium dose (3 mg/kg), Baseline (pre-surgery)
[10] = MI mice, medium dose (3 mg/kg), Week 2 (before start of dosing)
[11] = MI mice, medium dose (3 mg/kg), Week 4 (2 weeks after dosing)
[12] = MI mice, medium dose (3 mg/kg), Week 6 (4 weeks of treatment)
[13] = sham mice, high dose (10 mg/kg), Baseline (pre-surgery)
[14] = sham mice, high dose (10 mg/kg), Week 2 (before start of dosing)
[15] = sham mice, high dose (10 mg/kg), Week 4 (2 weeks after dosing)
[16] = sham mice, high dose (10 mg/kg), Week 6 (4 weeks of treatment)

For O=C(Nc1ccc(C[C@@H]2CC[C@H]([C@H](O)c3ccccc3)N2)cc1)[C@@H]1CCc2nccc(=O)n21 [Vibegron, (6S)—N-[4-[[(2S,5R)-5-[(R)-hydroxy(phenyl)methyl]pyrrolidin-2-yl]methyl]phenyl]-4-oxo-7,8-dihydro-6H-pyrrolo[1,2-a]pyrimidine-6-carboxamide], the “Average % Ejection Fraction” value [1] was 62.06%, the “Average % Fractional Shortening” value [1] was 32.99% and the “Cardiac Output” value [1] was 20.56 mL/min. For the same molecule, the “Stroke Volume” value [1] was 43.30 µL, the “Average % Ejection Fraction” value [2] was 38.39% and the “Average % Fractional Shortening” value [2] was 18.91%. The “Cardiac Output” value [2] was 18.93 mL/min, the “Stroke Volume” value [2] was 40.79 µL and the “Average % Ejection Fraction” value [3] was 42.59%. For the same molecule, the “Average % Fractional Shortening” value [3] was 21.61%, the “Cardiac Output” value [3] was 23.29 mL/min and the “Cardiac Output % Improvement Relative to Vehicle” value [3] was 37.40%. The “Stroke Volume” value [3] was 46.83 µL, the “Stroke Volume % Improvement Relative to Vehicle” value [3] was 40.84% and the “Average % Ejection Fraction” value [4] was 42.68%. The “Average % Fractional Shortening” value [4] was 21.76%, the “Cardiac Output” value [4] was 25.09 mL/min and the “Cardiac Output % Improvement Relative to Vehicle” value [4] was 61.35%. The “Stroke Volume” value [4] was 47.22 µL, the “Stroke Volume % Improvement Relative to Vehicle” value [4] was 57.87% and the “Average % Ejection Fraction” value [5] was 59.50%. The “Average % Fractional Shortening” value [5] was 31.22%, the “Cardiac Output” value [5] was 20.00 mL/min and the “Stroke Volume” value [5] was 42.74 µL. The “Average % Ejection Fraction” value [6] was 37.52%, the “Average % Fractional Shortening” value [6] was 18.44% and the “Cardiac Output” value [6] was 18.06 mL/min. The “Stroke Volume” value [6] was 39.30 µL, the “Average % Ejection Fraction” value [7] was 29.77% and the “Average % Fractional Shortening” value [7] was 14.29%. For the same molecule, the “Cardiac Output” value [7] was 15.45 mL/min, the “Stroke Volume” value [7] was 32.76 µL and the “Average % Ejection Fraction” value [8] was 31.64%. The “Average % Fractional Shortening” value [8] was 15.21%, the “Cardiac Output” value [8] was 19.19 mL/min and the “Cardiac Output % Improvement Relative to Vehicle” value [8] was 23.40%. The “Stroke Volume” value [8] was 37.54 µL, the “Stroke Volume % Improvement Relative to Vehicle” value [8] was 25.51% and the “Average % Ejection Fraction” value [9] was 58.11%. The “Average % Fractional Shortening” value [9] was 30.07%, the “Cardiac Output” value [9] was 21.05 mL/min and the “Stroke Volume” value [9] was 44.72 µL. For the same molecule, the “Average % Ejection Fraction” value [10] was 37.18%, the “Average % Fractional Shortening” value [10] was 18.14% and the “Cardiac Output” value [10] was 18.94 mL/min. For the same molecule, the “Stroke Volume” value [10] was 40.37 µL, the “Average % Ejection Fraction” value [11] was 35.95% and the “Average % Fractional Shortening” value [11] was 17.57%. For the same molecule, the “Cardiac Output” value [11] was 19.51 mL/min, the “Cardiac Output % Improvement Relative to Vehicle” value [11] was 15.10% and the “Stroke Volume” value [11] was 39.00 µL. The “Stroke Volume % Improvement Relative to Vehicle” value [11] was 17.29%, the “Average % Ejection Fraction” value [12] was 35.55% and the “Average % Fractional Shortening” value [12] was 17.36%. For the same molecule, the “Cardiac Output” value [12] was 20.90 mL/min, the “Cardiac Output % Improvement Relative to Vehicle” value [12] was 34.41% and the “Stroke Volume” value [12] was 41.69 µL. The “Stroke Volume % Improvement Relative to Vehicle” value [12] was 39.38%, the Onset of action (after initiation of treatment, as shown in the examples) was no more than 2 weeks and the “Adverse effects in healthy hearts (echocardiographic function versus baseline)” value (sham mice, high dose) was “no adverse effects”. For the same molecule, the “Average % Ejection Fraction” value [13] was 59.04%, the “Average % Fractional Shortening” value [13] was 30.87% and the “Cardiac Output” value [13] was 22.09 mL/min. For the same molecule, the “Stroke Volume” value [13] was 42.25 µL, the “Average % Ejection Fraction” value [14] was 62.36% and the “Average % Fractional Shortening” value [14] was 33.26%. The “Cardiac Output” value [14] was 23.72 mL/min, the “Stroke Volume” value [14] was 45.57 µL and the “Average % Ejection Fraction” value [15] was 61.08%. The “Average % Fractional Shortening” value [15] was 32.32%, the “Cardiac Output” value [15] was 22.53 mL/min and the “Stroke Volume” value [15] was 44.44 µL. The “Average % Ejection Fraction” value [16] was 61.18%, the “Average % Fractional Shortening” value [16] was 32.45% and the “Cardiac Output” value [16] was 23.63 mL/min. For the same molecule, the “Stroke Volume” value [16] was 45.97 µL.
